Results taken from patent publication US20230064307A1, “Pharmaceutical composition to destabilize abnormal methylation enzymes and use thereof” (priority 2021, published 2023).
Where two headings read alike, the source gives them in different places.

Columns and labels:
[1] = test system: cells with abnormal MEs; assay: Differentiation helper inducer (DHI) potency, RI0.5 (reductive index); assay type: cell-based
Source text: DHI was our invention, which was the term we created. DHls are inhibitors of individual enzymes of MEs. Rl0.5 was the method we developed for the measurement of potency as DHI [67].

[2] = test system: cells with abnormal MEs; assay: Differentiation inducer (DI) activity, ED25/ED50/ED75; assay type: cell-based
[3] = Water solubility; assay type: physicochemical
[4] = test system: cells with abnormal MEs; assay: Helping role of DHI to boost the activity of DI, in cell culture (% NBT+); assay type: cell-based
Source text: (§1) DHI was our invention, which was the term we created. DHls are inhibitors of individual enzymes of MEs. Rl0.5 was the method we developed for the measurement of potency as DHI [67]. Inhibitors of MT and SAHH are better than inhibitors of MAT to function as DHIs.

[5] = target: T1, MAT (Homo sapiens, UniProt P31153); assay: Helping role of DHI to boost the activity of DI, in cell culture (Km, Vmax of enzyme from treated cells); assay type: cell-based
T1 construct: endogenous in cells
Source text: as §1

[6] = test system: malignant brain tumors; details: in vivo; cited from earlier work
[7] = target: T2, MEs (MAT-MT-SAHH) (Rattus norvegicus, UniProt P10760); assay: Testosterone administration, sedimentation profiles of MEs from long-term hormone-depleted prostate (FIG. 1); assay type: in vivo; details: hypophysectomized rats, daily sc 1 mg for 3 days; single peak, intact ternary MEs
T2 construct: Cytosol extracts were prepared from prostates of each group; from tissue; host or cells: prostate cytosol of hypophysectomized rats
T2 sequence (P10760 1-432): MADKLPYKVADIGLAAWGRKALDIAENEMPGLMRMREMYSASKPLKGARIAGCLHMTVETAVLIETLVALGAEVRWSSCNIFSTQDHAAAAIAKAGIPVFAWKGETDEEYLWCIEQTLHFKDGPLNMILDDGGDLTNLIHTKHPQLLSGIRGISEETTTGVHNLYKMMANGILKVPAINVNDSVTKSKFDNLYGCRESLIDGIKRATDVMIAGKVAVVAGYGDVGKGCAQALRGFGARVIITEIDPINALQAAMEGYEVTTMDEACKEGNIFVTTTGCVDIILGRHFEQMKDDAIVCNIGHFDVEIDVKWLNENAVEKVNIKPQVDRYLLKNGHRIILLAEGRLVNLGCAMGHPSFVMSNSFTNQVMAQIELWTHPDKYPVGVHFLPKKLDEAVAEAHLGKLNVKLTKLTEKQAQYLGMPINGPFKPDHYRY
Method: Ten weeks after hypophysectomy, rats were divided into two groups. One group (b) received daily sc injection of I mg testosterone propionate dissolved in 0.25 ml of sesame oil for 3 days. The other group (a) was control without treatment. Cytosol extracts were prepared from prostates of each group with 5 volume of extraction buffer 0.05 M Tris HCl, pH 7.5, 50 mM KCl, 0.5 mM MgCl2. 0.1 ml of cytosol extracts were layered onto 5-20% linear sucrose density gradient for sedimentation analyses.

[8] = potency as DHI, RI0.5 is equivalent to ED25 of DI

T1 sequence (P31153 whole entry): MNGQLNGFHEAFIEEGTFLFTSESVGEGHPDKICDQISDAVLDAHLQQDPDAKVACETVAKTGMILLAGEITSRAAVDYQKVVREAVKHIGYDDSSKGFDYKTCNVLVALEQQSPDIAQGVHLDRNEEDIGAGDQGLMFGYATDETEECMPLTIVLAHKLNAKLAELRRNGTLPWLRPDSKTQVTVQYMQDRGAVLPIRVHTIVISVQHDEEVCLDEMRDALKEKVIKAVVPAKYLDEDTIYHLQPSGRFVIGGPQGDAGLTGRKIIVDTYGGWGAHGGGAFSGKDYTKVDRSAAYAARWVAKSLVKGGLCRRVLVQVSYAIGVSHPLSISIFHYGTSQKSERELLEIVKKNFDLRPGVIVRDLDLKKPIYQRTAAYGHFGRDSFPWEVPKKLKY

## Cc1ccc(Nc2nccc(N(C)c3ccc4c(C)n(C)nc4c3)n2)cc1S(N)(=O)=O.Cl [Votrient]
[1]; [8]
  RI0.5: 10.1 µM

## CCCCC[C@H](O)/C=C/[C@H]1C(=O)C=C[C@@H]1C/C=C\CCCC(=O)O [PGJ2, prostaglandin J2]
[2]
  ED25: 7.9 µM
  ED75: 20.5 µM

## COc1cc(/C=C/C(=O)CC(=O)/C=C/c2ccc(O)c(OC)c2)ccc1O [Curcumin]
[3]
  water solubility: not good

## O=[Se](O)O [Selenite]
[1]; [8]
  RI0.5: 19.7 µM

## O=C(O)Cc1ccccc1 [PA, phenylacetate]
[4]; PA, 4 mM
  % NBT+: 7%
[5]; in cell culture, PA, 4 mM
  Km: 20.3 µM
[5]; read-out: Vmax (% of control)
  Vmax (% of control) at 4000 µM: 88%

## CC[C@H](CC[C@@H](C)[C@H]1CC[C@H]2[C@@H]3CC=C4C[C@@H](O)CC[C@]4(C)[C@H]3CC[C@]12C)C(C)C [ß-sitoisterol]
[1]; [8]
  RI0.5: 1.72 µM

## Tetradecanoyl phorbol acetate [TPA]
[2]
  ED25: 0.00017 µM
  ED75: 0.00036 µM

## CC(=O)[C@H]1CC[C@H]2[C@@H]3CC=C4C[C@@H](O)CC[C@]4(C)[C@H]3CC[C@]12C [Pregnenolone]
[3]
  water solubility: not good
[1]; [8]
  RI0.5: 7.16 µM

## CCCCC[C@H](O)/C=C/[C@H]1[C@H](O)CC(=O)[C@@H]1C/C=C\CCCC(=O)O [PGE2, prostaglandin E2]
[2]
  ED25: 20.6 µM
  ED75: 46.5 µM

## C=CC1=C(C)C(=O)N=C1C=c1[nH]c(=Cc2[nH]c(O)c(C)c2CCC(=O)O)c(CCC(=O)O)c1C [Uroerythrin]
[1]; [8]
  RI0.5: 1.75 µM

## CC1=C(/C=C/C(C)=C/C=C/C(C)=C/C(=O)O)C(C)(C)CCC1 [RA, retinoic acid]
[4]; RA, 0.15 µM
  % NBT+: 16%
[5]; in cell culture, RA, 0.15 µM, read-out: Km
  Km: 17.5 µM
[5]; in cell culture, RA, 0.15 µM, read-out: Vmax (% of control)
  remaining activity at 0.15 µM: 60%

## O=C(O[C@@H]1Cc2c(O)cc(O)cc2O[C@@H]1c1cc(O)c(O)c(O)c1)c1cc(O)c(O)c(O)c1 [Epigallocatechin gallate]
[1]; [8]
  RI0.5: 0.62 µM

## CN(C)C=O [DMFA, dimethylformamide]
[4]; DMFA, 0.3%
  % NBT+: 14%
[5]; in cell culture, DMFA, 0.3%
  Km: 16.4 µM
  Vmax (% of control): 78 % of control

## Phenylbutyric acid
[6]
  response of malignant brain tumors: responded very well
[1]; [8]
  RI0.5: 970 µM

## CCC(=O)O[C@H]1CC[C@H]2[C@@H]3CCC4=CC(=O)CC[C@]4(C)[C@H]3CC[C@]12C [testosterone propionate]
[7]
  sedimentation of MEs (MAT, MT, SAHH) of prostate cytosol: 8 S

## CC1=C(/C=C/C(C)=C/C=C/C(C)=C/C(=O)O)C(C)(C)CCC1 [ATRA, all-trans retinoic acid]
[2]
  ED25: 0.18 µM
  ED75: 0.75 µM

## C/C(=C\C(=O)Nc1ccccc1C(=O)O)c1ccc2ccccc2c1 [BIBR1532]
[2]
  ED25: 32.3 µM
  ED75: 55.1 µM

## CCCCC(C)(C)[C@H](O)/C=C/[C@H]1[C@H](O)CC(=O)[C@@H]1C/C=C\CCCC(=O)O [16, 16-dimethylPGE2, 16,16-dimethylprosglandin E2]
[2]
  ED25: 10.8 µM
  ED75: 30.1 µM

## [Cl-].[Cl-].[Co+2] [CoCl2]
[1]
  RI0.5: 0.62 µM

## CCCCC1C(=O)CC[C@H]2[C@@H]1CC(=O)[C@@H]2C/C=C\CCCC(=O)O (stereo partly shown) [BicycloPGE2, bicycloprostaglandin E2]
[2]
  ED25: 21.0 µM

## CCCCC/C=C\C/C=C\C/C=C\C/C=C\CCCC(=O)O [AA, arachidonic acid]
[2]
  ED25: 24.0 µM

## O=[As]O[As]=O (stereo not shown) [AS2O3]
[1]; [8]
  RI0.5: 0.28 µM

## COc1cc2c(cc1O)C[C@H]1c3c(cc(O)c(OC)c3-2)CCN1C [Boldine]
[2]
  ED25: 60.1 µM
  ED75: 94.2 µM

## C/C=C1\C(=O)C[C@H]2[C@@H]3CCC4=CC(=O)CC[C@]4(C)[C@H]3CC[C@]12C [Gugulsterone]
[1]; [8]
  RI0.5: 1.59 µM

## C=C1CC[C@H](O)C/C1=C/C=C1\CCC[C@]2(C)[C@@H]([C@H](C)CCCC(C)C)CC[C@@H]12 [Vitamin D3]
[1]; [8]
  RI0.5: 0.61 µM
